Experimental data published in ChEMBL document CHEMBL5724914, “Linking interpersonal differences in gut microbiota composition and drug biotransformation activity” (2024).

Tests used:
[1] = The drug is tested on WLS-027 corresponding to human gut metagenome with ENA study accession number: PRJEB37062 and ENA sample accession number: ERS12561744 for biotransformation under anaerobic condition. The drug concentrations were measured over 9 timepoints collected between 0 and 24 hours of incubation by liquid-chromatography-coupled mass spectrometry (LC–MS); details: 2 µM
[2] = human gut metagenome, 24 h, 2 µM
[3] = human gut metagenome, 24 h, 2 µM; remark: listed apart in the source
[4] = The drug is tested on Z-002 corresponding to rabbit gut metagenome with ENA study accession number: PRJEB37062 and ENA sample accession number: ERS12561802 for biotransformation under anaerobic condition. The drug concentrations were measured over 9 timepoints collected between 0 and 24 hours of incubation by liquid-chromatography-coupled mass spectrometry (LC–MS); details: 2 µM
[5] = The drug is tested on Z-021 corresponding to metagenome with ENA study accession number: PRJEB37062 and ENA sample accession number: ERS12561820 for biotransformation under anaerobic condition. The drug concentrations were measured over 9 timepoints collected between 0 and 24 hours of incubation by liquid-chromatography-coupled mass spectrometry (LC–MS); details: 2 µM
[6] = The drug is tested on WLS-010 corresponding to human gut metagenome with ENA study accession number: PRJEB37062 and ENA sample accession number: ERS12561743 for biotransformation under anaerobic condition. The drug concentrations were measured over 9 timepoints collected between 0 and 24 hours of incubation by liquid-chromatography-coupled mass spectrometry (LC–MS); details: 2 µM
[7] = The drug is tested on Z-029 corresponding to rat gut metagenome with ENA study accession number: PRJEB37062 and ENA sample accession number: ERS12561828 for biotransformation under anaerobic condition. The drug concentrations were measured over 9 timepoints collected between 0 and 24 hours of incubation by liquid-chromatography-coupled mass spectrometry (LC–MS); details: 2 µM
[8] = The drug is tested on Z-028 corresponding to mouse gut metagenome with ENA study accession number: PRJEB37062 and ENA sample accession number: ERS12561827 for biotransformation under anaerobic condition. The drug concentrations were measured over 9 timepoints collected between 0 and 24 hours of incubation by liquid-chromatography-coupled mass spectrometry (LC–MS); details: 2 µM
[9] = human gut metagenome, 24 h, 2 µM; remark: listed apart in the source
[10] = human gut metagenome, 24 h, 2 µM; remark: listed apart in the source
[11] = The drug is tested on Z-020 corresponding to rabbit gut metagenome with ENA study accession number: PRJEB37062 and ENA sample accession number: ERS12561819 for biotransformation under anaerobic condition. The drug concentrations were measured over 9 timepoints collected between 0 and 24 hours of incubation by liquid-chromatography-coupled mass spectrometry (LC–MS); details: 2 µM
[12] = The drug is tested on Z-026 corresponding to metagenome with ENA study accession number: PRJEB37062 and ENA sample accession number: ERS12561825 for biotransformation under anaerobic condition. The drug concentrations were measured over 9 timepoints collected between 0 and 24 hours of incubation by liquid-chromatography-coupled mass spectrometry (LC–MS); details: 2 µM
[13] = human gut metagenome, 24 h, 2 µM; remark: listed apart in the source
[14] = human gut metagenome, 24 h, 2 µM; remark: listed apart in the source
[15] = The drug is tested on WLS-082 corresponding to human gut metagenome with ENA study accession number: PRJEB37062 and ENA sample accession number: ERS12561751 for biotransformation under anaerobic condition. The drug concentrations were measured over 9 timepoints collected between 0 and 24 hours of incubation by liquid-chromatography-coupled mass spectrometry (LC–MS); details: 2 µM
[16] = human gut metagenome, 24 h, 2 µM; remark: listed apart in the source
[17] = human gut metagenome, 24 h, 2 µM; remark: listed apart in the source
[18] = The drug is tested on WLS-170 corresponding to human gut metagenome with ENA study accession number: PRJEB37062 and ENA sample accession number: ERS12561762 for biotransformation under anaerobic condition. The drug concentrations were measured over 9 timepoints collected between 0 and 24 hours of incubation by liquid-chromatography-coupled mass spectrometry (LC–MS); details: 2 µM
[19] = The drug is tested on WLS-370 corresponding to human gut metagenome with ENA study accession number: PRJEB37062 and ENA sample accession number: ERS12561793 for biotransformation under anaerobic condition. The drug concentrations were measured over 9 timepoints collected between 0 and 24 hours of incubation by liquid-chromatography-coupled mass spectrometry (LC–MS); details: 2 µM
[20] = The drug is tested on Z-013 corresponding to rabbit gut metagenome with ENA study accession number: PRJEB37062 and ENA sample accession number: ERS12561813 for biotransformation under anaerobic condition. The drug concentrations were measured over 9 timepoints collected between 0 and 24 hours of incubation by liquid-chromatography-coupled mass spectrometry (LC–MS); details: 2 µM
Also: call rule not given here.

Compound	Bacterial Biotransformation [1]	Bacterial Biotransformation [2]	Bacterial Biotransformation [3]	Bacterial Biotransformation [4]	Bacterial Biotransformation [5]	Bacterial Biotransformation [6]	Bacterial Biotransformation [7]	Bacterial Biotransformation [8]	Bacterial Biotransformation [9]	Bacterial Biotransformation [10]	Bacterial Biotransformation [11]	Bacterial Biotransformation [12]	Bacterial Biotransformation [13]	Bacterial Biotransformation [14]	Bacterial Biotransformation [15]	Bacterial Biotransformation [16]	Bacterial Biotransformation [17]	Bacterial Biotransformation [18]	Bacterial Biotransformation [19]	Bacterial Biotransformation [20]
CC(C)c1nc(N(C)S(C)(=O)=O)nc(-c2ccc(F)cc2)c1/C=C/[C@@H](O)C[C@@H](O)CC(=O)[O-].CC(C)c1nc(N(C)S(C)(=O)=O)nc(-c2ccc(F)cc2)c1/C=C/[C@@H](O)C[C@@H](O)CC(=O)[O-].[Ca+2] [ROSUVASTATIN CALCIUM]	Compound metabolized	Compound NOT metabolized	Compound metabolized	Compound NOT metabolized	Compound NOT metabolized	Compound metabolized	Compound NOT metabolized	Compound NOT metabolized	Compound metabolized	Compound metabolized	Compound NOT metabolized	Compound NOT metabolized	Compound metabolized	Compound metabolized	Compound metabolized	Compound NOT metabolized	Compound metabolized	Compound metabolized	Compound metabolized	Compound NOT metabolized
COc1ccc(CN2CCNCC2)c(OC)c1OC.Cl.Cl [TRIMETAZIDINE DIHYDROCHLORIDE]	Compound NOT metabolized	Compound NOT metabolized	Compound NOT metabolized	Compound NOT metabolized	Compound NOT metabolized	Compound NOT metabolized	Compound NOT metabolized	Compound NOT metabolized	Compound NOT metabolized	Compound NOT metabolized	Compound NOT metabolized	Compound NOT metabolized	Compound NOT metabolized	Compound NOT metabolized	Compound NOT metabolized	Compound NOT metabolized	Compound NOT metabolized	Compound NOT metabolized	Compound NOT metabolized	Compound NOT metabolized
CN(C)CCC=C1c2ccccc2COc2ccccc21 [DOXEPIN]	Compound metabolized	Compound NOT metabolized	Compound NOT metabolized	Compound NOT metabolized	Compound NOT metabolized	Compound NOT metabolized	Compound NOT metabolized	Compound NOT metabolized	Compound metabolized	Compound metabolized	Compound NOT metabolized	Compound NOT metabolized	Compound metabolized	Compound NOT metabolized	Compound NOT metabolized	Compound NOT metabolized	Compound metabolized	Compound metabolized	Compound metabolized	Compound NOT metabolized
Nc1nc(N)nc(-c2cc(Cl)ccc2Cl)n1.O=C(O)/C=C\C(=O)O [IRSOGLADINE MALEATE]	Compound NOT metabolized	Compound NOT metabolized	Compound NOT metabolized	Compound NOT metabolized	Compound NOT metabolized	Compound NOT metabolized	Compound NOT metabolized	Compound NOT metabolized	Compound NOT metabolized	Compound NOT metabolized	Compound NOT metabolized	Compound NOT metabolized	Compound metabolized	Compound NOT metabolized	Compound NOT metabolized	Compound NOT metabolized	Compound NOT metabolized	Compound NOT metabolized	Compound NOT metabolized	Compound NOT metabolized
C[C@]12CCC(=O)C=C1[C@@H]1C[C@@H]1[C@H]1[C@@H]3[C@@H]4C[C@@H]4[C@@]4(CCC(=O)O4)[C@@]3(C)CC[C@@H]12 [DROSPIRENONE]	Compound metabolized	Compound NOT metabolized	Compound metabolized	Compound metabolized	Compound metabolized	Compound metabolized	Compound NOT metabolized	Compound NOT metabolized	Compound NOT metabolized	Compound NOT metabolized	Compound metabolized	Compound NOT metabolized	Compound metabolized	Compound metabolized	Compound metabolized	Compound metabolized	Compound metabolized	Compound metabolized	Compound metabolized	Compound metabolized
